Reference: patent US7063946B2, “Methods, reagents, kits and apparatus for protein function analysis” (Meso Scale Technologies, LLC., priority 2001, dated 2006)

What was measured:
BTK = target: T1, BTK (Homo sapiens, UniProt Q06187); assay: Kinase inhibitor profiling, pEY phosphorylation; format: biochemical
T1 construct: specificity data for proteins generated from a library of eighteen full-length clones; host or cells: rabbit reticulocyte lysate, TnT coupled in vitro transcription/translation (cell-free)
Experimental: (§1) Proteins were produced in an in vitro transcription and translation reaction. […] The unbound components of the reaction containing endogenous kinases were removed by three washes with TT-buffer (25 mM Tris-HCl buffer pH 7.4 and 0.004% Triton), two five minutes washings with high-salt wash buffer (25 mM Tris-HCl buffer pH 7.4, 0.004% Triton, 1M NaCl and 5 mM DTT) and 3 more washes with TT-buffer. To these immobilized and purified proteins a tyrosine kinase substrate, 5 nM pEY (poly Glu-Tyr, Sigma, MO), was added in a 50 μl reaction solution containing 5 mM MgCl2, 5 mM MnCl2, 100 μM ATP, 25 mM Tris-HCl buffer pH 7.4, 0.05 mM Na3VO4, 0.004% TritonX-100, 2 mM DTT and EDTA-free protease inhibitor (Roche Molecular Biochemicals). This mixture was incubated with shaking at room temperature overnight to allow phosphorylation of the pEY substrate by the immobilized kinases. Following this incubation, 45 μl of this mixture was transferred to a streptavidin or avidin-coated NPT IPR plate coated with biotinylated anti-phosphotyrosine antibody (PY20, Zymed labs, CA) followed by incubation for 30 minutes at room temperature to allow the binding of the phosphorylated pEY substrate to the PY20 coated NPT plate. Following this binding step, 50 ng Sulfo-TAG labeled anti-phosphotyrosine in buffer containing 25 mM Tris-HCl buffer pH 7.4, 5 mM MgCl2, 0.05 mM Na3VO4, 0.004% TritonX-100, 2 mM DTT and 0.05% IgG was added followed by incubation at room temperature for 30 mm. The unbound reagents were removed by one time washing with water, and the TAG label was detected in presence of 150 μl IPR assay buffer (0.4 mM Gly-Gly buffer, pH 7.8, 1 mM EDTA, 0.1 M TPA). The ECL signals were measured using an imaging plate reader.
(§2) The unbound components of the translation reaction (including any endogenous kinases) were removed by 3 washes with TT-buffer (25 mM Tris-HCl buffer pH 7.4 and 0.004% Triton), two five minutes washes with high-salt wash buffer (25 mM Tris-HCl buffer pH 7.4, 0.004% Triton, 1M NaCl and 5 mM DTT) and 3 washes with TT-buffer. […] The mixture was incubated at room temperature for 10 mm before starting the kinase reaction by adding 25 μl of 200 μM ATP in buffer A. This mixture was incubated with intermittent shaking at room temperature for 2 hours to overnight to allow (a) phosphorylation of the pEY substrate and (b) autophosphorylation of the immobilized kinases. Autophosphorylation and phosphorylation of the pEY was measured as described in Examples 7 and 8.
(§3) The ECL signal in control wells produced by tyrosine kinases was compared to the wells containing inhibitor compounds.

[1] = system: tyrosine kinases reported to be the target of each inhibitor; settings: read-out: reported IC50 concentration (1× concentration); for the kinase reported to be the target of the inhibitor; cited from earlier work
Kit = target: T2, Kit (Mus musculus, UniProt P05532); assay: Kinase inhibitor profiling, pEY phosphorylation; format: biochemical
T2 construct: specificity data for proteins generated from a library of eighteen full-length clones; biotin on random lysines (biotin-Lys-tRNA); host or cells: rabbit reticulocyte lysate, coupled transcription/translation (TnT, Promega)
Experimental: as §1
(§4) Proteins were produced using 100 ng of plasmid DNA Mock (Luciferase, Promega) or tyrosine kinases (Fert2 IMAGE ID # 4485050, FGFR1 IMAGE ID # 4037899, Fgfr2 IMAGE ID # 2654352, Src IMAGE ID # 3156400, BMX IMAGE ID # 3919253, LCK IMAGE ID # 4191610, Epha7 IMAGE ID # 3991628, Ephb4 IMAGE ID # 4013934, Tek IMAGE ID # 3482498, HCK IMAGE ID # 4778819, BTK IMAGE ID # 4478463, CSK IMAGE ID # 4398416, SYK IMAGE ID # 3870426, FGR IMAGE ID # 4419973, PTK2B IMAGE ID # 4339456, FRK(IMAGE ID # 4515877, Kit IMAGE ID # 2644960, Fgfr-4 IMAGE ID # 4239139, NTRK3 IMAGE ID # 4181574, Kdr IMAGE ID # 4238984, Incyte Genomics, CA) and immobilized on SA or avidin coated NPT-IPR plates as described in previous examples. The unbound components of the translation reaction (including any endogenous kinases) were removed by 3 washes with TT-buffer (25 mM Tris-HCl buffer pH 7.4 and 0.004% Triton), two five minutes washes with high-salt wash buffer (25 mM Tris-HCl buffer pH 7.4, 0.004% Triton, 1M NaCl and 5 mM DTT) and 3 washes with TT-buffer. […] The mixture was incubated at room temperature for 10 mm before starting the kinase reaction by adding 25 μl of 200 μM ATP in buffer A. This mixture was incubated with intermittent shaking at room temperature for 2 hours to overnight to allow (a) phosphorylation of the pEY substrate and (b) autophosphorylation of the immobilized kinases. Autophosphorylation and phosphorylation of the pEY was measured as described in Examples 7 and 8.
(§5) The ECL signal in control wells produced by tyrosine kinases was compared to the wells containing inhibitor compounds. The signal produced from Mock was negligible.

EphB4 = target: T3, EphB4 (Mus musculus, UniProt P54761); assay: Kinase inhibitor profiling, pEY phosphorylation; format: biochemical
T3 construct: specificity data for proteins generated from a library of eighteen full-length clones; host or cells: rabbit reticulocyte lysate, TnT coupled in vitro transcription/translation (cell-free)
T3 sequence (P54761 16-987): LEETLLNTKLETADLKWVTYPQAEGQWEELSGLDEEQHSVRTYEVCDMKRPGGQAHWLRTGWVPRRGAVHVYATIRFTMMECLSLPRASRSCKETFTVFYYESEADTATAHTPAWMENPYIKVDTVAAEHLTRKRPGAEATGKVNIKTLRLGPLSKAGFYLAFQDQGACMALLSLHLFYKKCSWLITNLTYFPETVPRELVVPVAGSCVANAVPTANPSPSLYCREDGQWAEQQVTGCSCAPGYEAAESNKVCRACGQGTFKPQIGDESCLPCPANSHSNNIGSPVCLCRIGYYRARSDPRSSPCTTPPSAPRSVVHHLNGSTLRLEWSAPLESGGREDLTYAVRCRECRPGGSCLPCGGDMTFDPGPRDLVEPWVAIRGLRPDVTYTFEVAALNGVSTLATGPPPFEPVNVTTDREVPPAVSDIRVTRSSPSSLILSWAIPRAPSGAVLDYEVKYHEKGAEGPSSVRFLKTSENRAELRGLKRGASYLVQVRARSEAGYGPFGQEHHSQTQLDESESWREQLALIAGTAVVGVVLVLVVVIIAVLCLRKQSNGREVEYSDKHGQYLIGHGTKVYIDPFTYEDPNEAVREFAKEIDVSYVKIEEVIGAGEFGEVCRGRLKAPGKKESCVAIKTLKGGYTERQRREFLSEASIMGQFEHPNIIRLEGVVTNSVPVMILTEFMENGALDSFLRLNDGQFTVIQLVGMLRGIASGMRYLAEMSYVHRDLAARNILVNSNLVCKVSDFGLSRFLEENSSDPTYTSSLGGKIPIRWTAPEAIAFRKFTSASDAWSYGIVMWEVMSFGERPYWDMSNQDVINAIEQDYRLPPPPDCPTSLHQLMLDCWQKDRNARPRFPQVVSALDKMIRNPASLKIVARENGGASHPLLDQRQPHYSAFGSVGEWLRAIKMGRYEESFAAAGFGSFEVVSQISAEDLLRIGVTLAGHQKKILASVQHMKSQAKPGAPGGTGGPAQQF
Experimental: as §1, §4, §5

Fgfr4 = target: T4, Fgfr4 (Mus musculus, UniProt Q03142); assay: Kinase inhibitor profiling, pEY phosphorylation; format: biochemical
T4 construct: specificity data for proteins generated from a library of eighteen full-length clones; biotin on random lysines (biotin-Lys-tRNA); host or cells: rabbit reticulocyte lysate, coupled transcription/translation (TnT, Promega)
Experimental: as §1, §4, §5

Kdr = target: T5, Kdr (Mus musculus, UniProt P35918); assay: Kinase inhibitor profiling, pEY phosphorylation; format: biochemical
T5 construct: specificity data for proteins generated from a library of eighteen full-length clones; biotin on random lysines (biotin-Lys-tRNA); host or cells: rabbit reticulocyte lysate, coupled transcription/translation (TnT, Promega)
Experimental: as §1, §2, §3

T2 sequence (P05532 25-979): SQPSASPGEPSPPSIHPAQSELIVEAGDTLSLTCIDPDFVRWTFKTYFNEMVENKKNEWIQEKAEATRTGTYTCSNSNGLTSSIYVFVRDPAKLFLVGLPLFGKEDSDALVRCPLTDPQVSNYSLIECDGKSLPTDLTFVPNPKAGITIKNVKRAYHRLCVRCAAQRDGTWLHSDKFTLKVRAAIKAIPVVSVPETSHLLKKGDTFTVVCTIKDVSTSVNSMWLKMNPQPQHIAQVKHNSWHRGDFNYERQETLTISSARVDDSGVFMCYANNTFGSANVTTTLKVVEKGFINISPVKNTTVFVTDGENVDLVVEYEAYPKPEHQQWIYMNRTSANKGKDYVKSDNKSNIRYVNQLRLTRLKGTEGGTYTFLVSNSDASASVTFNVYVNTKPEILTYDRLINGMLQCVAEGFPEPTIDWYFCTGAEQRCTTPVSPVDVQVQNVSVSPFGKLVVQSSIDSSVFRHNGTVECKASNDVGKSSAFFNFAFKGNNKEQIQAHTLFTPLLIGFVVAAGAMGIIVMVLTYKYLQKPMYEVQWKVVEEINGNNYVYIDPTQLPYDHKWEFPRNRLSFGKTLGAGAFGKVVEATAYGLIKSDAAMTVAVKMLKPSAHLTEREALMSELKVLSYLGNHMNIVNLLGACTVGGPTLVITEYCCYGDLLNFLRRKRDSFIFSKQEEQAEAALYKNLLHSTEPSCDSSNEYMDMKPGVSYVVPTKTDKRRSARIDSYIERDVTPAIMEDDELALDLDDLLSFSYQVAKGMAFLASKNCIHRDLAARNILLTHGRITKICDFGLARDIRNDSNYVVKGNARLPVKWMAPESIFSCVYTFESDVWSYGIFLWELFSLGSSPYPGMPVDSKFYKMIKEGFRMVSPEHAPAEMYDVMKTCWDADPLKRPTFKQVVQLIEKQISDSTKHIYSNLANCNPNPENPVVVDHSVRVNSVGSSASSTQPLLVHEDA
T1 sequence (Q06187 whole entry): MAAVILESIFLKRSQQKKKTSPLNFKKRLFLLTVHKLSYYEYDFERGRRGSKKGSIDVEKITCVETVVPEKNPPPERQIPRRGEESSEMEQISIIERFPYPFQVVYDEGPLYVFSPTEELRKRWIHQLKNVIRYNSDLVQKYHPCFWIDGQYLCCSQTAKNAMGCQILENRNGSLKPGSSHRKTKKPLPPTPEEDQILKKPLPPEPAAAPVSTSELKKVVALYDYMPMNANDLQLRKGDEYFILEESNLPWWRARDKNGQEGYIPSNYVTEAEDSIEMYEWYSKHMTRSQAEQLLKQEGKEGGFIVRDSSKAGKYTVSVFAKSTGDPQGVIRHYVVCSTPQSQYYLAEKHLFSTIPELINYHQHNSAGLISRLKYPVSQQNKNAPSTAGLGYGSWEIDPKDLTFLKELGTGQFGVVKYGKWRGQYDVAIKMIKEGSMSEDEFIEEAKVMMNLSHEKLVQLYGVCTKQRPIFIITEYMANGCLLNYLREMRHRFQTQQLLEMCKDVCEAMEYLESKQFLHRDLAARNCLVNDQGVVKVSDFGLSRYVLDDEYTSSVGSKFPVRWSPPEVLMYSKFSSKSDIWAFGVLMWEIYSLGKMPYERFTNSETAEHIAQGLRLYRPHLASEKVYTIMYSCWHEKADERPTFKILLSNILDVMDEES
T4 sequence (Q03142 17-799): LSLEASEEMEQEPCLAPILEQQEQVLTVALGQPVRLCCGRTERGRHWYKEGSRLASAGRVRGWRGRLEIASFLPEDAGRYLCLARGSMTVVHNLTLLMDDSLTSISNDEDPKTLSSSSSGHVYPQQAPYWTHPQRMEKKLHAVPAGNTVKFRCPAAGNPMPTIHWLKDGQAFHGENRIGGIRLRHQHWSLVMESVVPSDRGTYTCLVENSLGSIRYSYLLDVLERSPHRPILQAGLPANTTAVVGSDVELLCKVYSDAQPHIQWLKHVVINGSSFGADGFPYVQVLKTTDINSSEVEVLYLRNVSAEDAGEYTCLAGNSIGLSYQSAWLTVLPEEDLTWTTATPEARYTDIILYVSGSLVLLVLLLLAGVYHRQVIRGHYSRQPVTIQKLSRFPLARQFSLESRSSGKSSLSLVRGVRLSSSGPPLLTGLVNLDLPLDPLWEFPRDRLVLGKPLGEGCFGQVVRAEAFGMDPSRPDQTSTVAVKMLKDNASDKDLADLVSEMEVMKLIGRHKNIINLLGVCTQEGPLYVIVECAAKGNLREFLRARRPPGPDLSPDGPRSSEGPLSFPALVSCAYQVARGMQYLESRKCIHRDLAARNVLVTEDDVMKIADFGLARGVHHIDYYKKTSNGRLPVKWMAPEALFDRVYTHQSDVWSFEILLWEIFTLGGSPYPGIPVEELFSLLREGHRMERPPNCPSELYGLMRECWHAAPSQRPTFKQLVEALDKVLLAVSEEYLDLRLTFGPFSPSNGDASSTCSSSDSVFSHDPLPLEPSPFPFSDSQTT
T5 sequence (P35918 20-1345): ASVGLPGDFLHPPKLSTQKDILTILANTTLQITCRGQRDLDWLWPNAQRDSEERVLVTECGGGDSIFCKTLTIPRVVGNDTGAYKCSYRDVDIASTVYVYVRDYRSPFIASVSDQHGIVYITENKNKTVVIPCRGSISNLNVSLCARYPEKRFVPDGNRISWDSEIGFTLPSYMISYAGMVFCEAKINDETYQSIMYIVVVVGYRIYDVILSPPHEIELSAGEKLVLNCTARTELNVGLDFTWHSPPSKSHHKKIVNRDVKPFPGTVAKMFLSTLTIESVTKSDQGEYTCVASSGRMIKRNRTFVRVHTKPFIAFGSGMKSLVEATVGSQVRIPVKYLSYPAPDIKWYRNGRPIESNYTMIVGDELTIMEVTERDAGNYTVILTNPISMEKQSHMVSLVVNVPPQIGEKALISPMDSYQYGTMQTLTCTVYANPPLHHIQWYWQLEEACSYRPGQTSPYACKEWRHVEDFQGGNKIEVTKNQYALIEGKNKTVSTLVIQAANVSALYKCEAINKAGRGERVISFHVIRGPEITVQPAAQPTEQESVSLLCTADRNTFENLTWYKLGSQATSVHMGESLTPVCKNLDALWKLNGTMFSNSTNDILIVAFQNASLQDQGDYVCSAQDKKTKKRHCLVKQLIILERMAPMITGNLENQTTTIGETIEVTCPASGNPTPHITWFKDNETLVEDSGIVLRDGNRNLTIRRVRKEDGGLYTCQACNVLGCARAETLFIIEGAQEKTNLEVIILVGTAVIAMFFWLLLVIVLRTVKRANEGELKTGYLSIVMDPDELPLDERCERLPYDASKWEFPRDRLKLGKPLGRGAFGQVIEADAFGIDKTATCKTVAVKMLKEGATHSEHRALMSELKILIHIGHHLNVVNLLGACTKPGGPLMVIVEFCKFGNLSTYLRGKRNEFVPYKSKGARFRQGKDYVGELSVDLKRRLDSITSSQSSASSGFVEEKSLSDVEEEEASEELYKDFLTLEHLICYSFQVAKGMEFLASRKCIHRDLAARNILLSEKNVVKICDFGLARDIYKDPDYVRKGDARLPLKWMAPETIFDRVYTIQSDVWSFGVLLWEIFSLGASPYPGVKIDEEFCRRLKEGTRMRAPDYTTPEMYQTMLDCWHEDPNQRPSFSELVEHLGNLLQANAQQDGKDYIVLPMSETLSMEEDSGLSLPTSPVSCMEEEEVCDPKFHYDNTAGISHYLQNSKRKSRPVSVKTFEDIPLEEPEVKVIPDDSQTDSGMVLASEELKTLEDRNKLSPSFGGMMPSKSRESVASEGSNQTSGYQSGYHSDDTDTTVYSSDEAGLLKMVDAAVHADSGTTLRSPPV

Row | Structure (SMILES) | Inhibition specificity towards pEY phosphorylation at 10X IC50, BTK (BTK) | IC50 [1] | Inhibition specificity towards pEY phosphorylation at 10X IC50, Kit (Kit) | Inhibition specificity towards pEY phosphorylation at 10X IC50, EphB4 (EphB4) | Inhibition specificity towards pEY phosphorylation at 10X IC50, Fgfr4 (Fgfr4) | Inhibition specificity towards pEY phosphorylation at 10X IC50, Kdr (Kdr)
1 | CC(C)(C)c1cc(/C=C(\C#N)C(N)=S)cc(C(C)(C)C)c1O [AG879] | L (low inhibition (“L”=between 50–75% of the activity remaining)) | 10 µM |  |  |  | 
2 | CC(C)(C)c1cc(C=C(C#N)C#N)cc(C(C)(C)C)c1O [AG-17] |  | 0.5 µM | L (low inhibition (“L”=between 50–75% of the activity remaining)) |  |  | 
3 | N#C/C(=C/c1ccc(O)c(O)c1)C(=O)NCc1ccccc1 [AG-490] | L (low inhibition (“L”=between 50–75% of the activity remaining)) | 0.1 µM |  |  |  | 
4 | COc1cc2ncc(-c3ccccc3)nc2cc1OC [AG-1296] |  | 1 µM | M (medium inhibition (“M”=between 25 to 50% of the activity remaining)) | L (low inhibition (“L”=between 50–75% of the activity remaining)) |  | 
5 | O=c1c(-c2ccc(O)cc2)coc2cc(O)cc(O)c12 [Genistein] |  |  | M (medium inhibition (“M”=between 25 to 50% of the activity remaining)) | L (low inhibition (“L”=between 50–75% of the activity remaining)) |  | 
6 | C/C(O)=C(\C#N)C(=O)Nc1cc(Br)ccc1Br [LFM-A13] |  | 17.2 µM | M (medium inhibition (“M”=between 25 to 50% of the activity remaining)) |  | M (medium inhibition (“M”=between 25 to 50% of the activity remaining)) | L (low inhibition (“L”=between 50–75% of the activity remaining))
7 | O=C(O)c1cc(N(Cc2ccccc2O)Cc2cc(O)ccc2O)ccc1O [Lavendustin A] |  | 0.011 µM | L (low inhibition (“L”=between 50–75% of the activity remaining)) |  |  | 
